Reference: patent US20030195212A1, “Novel melanocortin receptor agonists and antagonists” (priority 2000, published 2003)
pKi: −log10 of the molar value.

Key:
MC1 receptor [1] = biological target: T1, MC1 receptor (Mus musculus, UniProt Q01727); assay: Affinity for the MC1-receptor, displacement of I125-NDP-MSH; type: binding; details: B16 mouse melanoma cells, I125-NDP-MSH ligand; read-out: Affinity for MC-receptors Ki MC1
T1 construct: B16 mouse melanoma cells were used, which endogenously express the (mouse) MC1 receptor; endogenous in cells; host or cells: B16 mouse melanoma cells
Method: Test 1. Affinity for the MC1-Receptor
The binding assay was carried out essentially as described by Lunec et al Melanoma Res 1992; 2; 5-12 using I^125α-NDP-MSH as ligand.
(§1) Essentially, the affinity of the compounds to the different receptors were determined using either insect cells (Sf9) or COS cells, which were transfected with recombinant human MC3, MC4 or MC5 receptors. For the determination of the affinity to the MC1 receptor, B16 mouse melanoma cells were used, which endogenously express the (mouse) MC1 receptor.
(§2) The compounds were tested at different concentrations for their ability to displace I^125-labelled NDP-MSH from the respective receptor. Incubation was performed in 96-well plates using 50,000 cells/well (Sf9 or COS cells) up to 200,000 cells/well (mouse melanoma cells).
(§3) The test compound or standard (NDP-MSH) was added in an appropriate concentration (generally between 10^−4 M and 10^−12 M) together with labelled tracer (approx. 50,000 cpm/well) and incubation was performed for 2 hours (at room temperature for Sf 9 cells and at +37° C. for COS cells and mouse melanoma cells).
(§4) After the incubation, the cells were washed twice to get rid of excess tracer and compound, and the cells were lysed with 0.1M NaOH. The lysate was counted in a gamma-counter, binding was calculated and the affinity then determined.

human MC3 receptor [2] = biological target: T2, human MC3 receptor (Homo sapiens, UniProt P41968); assay: Affinity for the MC3-receptor, displacement of I125-NDP-MSH; type: binding; details: Sf9 or COS cells transfected with human MC3, I125-NDP-MSH ligand; for pKi: read-out: Affinity for MC-receptors Ki MC3
T2 construct: expressed in transfected cells; host or cells: Sf9 insect cells or COS cells
Method: (§5) Test 2. Affinity for the MC3-Receptors, the MC4-Receptors and the MC5-Receptors
(§6) The binding assays were carried out essentially as described by Szardenings et al., J. Biol. Chem. 1997; 272; 27943-27948 and Schiöth et al., FEBS Lett. 1997; 410; 223-228 using I^125-NDP-α-MSH as ligand.
as §1, §2, §3, §4

human MC4 receptor [3] = biological target: T3, human MC4 receptor (Homo sapiens, UniProt P32245); assay: Affinity for the MC4-receptor, displacement of I125-NDP-MSH; type: binding; details: Sf9 or COS cells transfected with human MC4, I125-NDP-MSH ligand; read-out: Affinity for MC-receptors Ki MC4
T3 construct: expressed in transfected cells; host or cells: Sf9 insect cells or COS cells
Method: as §5, §6, §1, §2, §3, §4

human MC5 receptor [4] = biological target: T4, human MC5 receptor (Homo sapiens, UniProt P33032); assay: Affinity for the MC5-receptor, displacement of I125-NDP-MSH; type: binding; details: Sf9 or COS cells transfected with human MC5, I125-NDP-MSH ligand; read-out: Affinity for MC-receptors Ki MC5
T4 construct: expressed in transfected cells; host or cells: Sf9 insect cells or COS cells
Method: as §5, §6, §1, §2, §3, §4

MC1 receptor [5] = biological target: T1, MC1 receptor; assay: cAMP assay, MC1 receptor (mouse melanoma B16 cells); type: cell-based; details: 20 minutes at +37° C.
Method: (§7) Test 3. cAMP Assay p The stimulation of cAMP was carried out essentially as described by Schiöth et al., Br. J. Pharmacol. 1998; 124; 75-82.
(§8) Essentially, the effects of the compounds were tested […] for their ability to stimulate the production of cAMP. The cells used were the same ones that were used for the binding assays (see above), i.e. for the MC1 receptor mouse melanoma B16 cells were used and for the MC3, MC4 and MC5 receptors, Sf9 or COS cells, transfected with the respective human receptors.
(§9) Cyclic AMP was stimulated by the addition of the compounds at different concentrations in the presence of a phosphodiesterase inhibitor, during a period of 20 minutes at +37° C. cAMP was extracted with PCA, neutralised with KOH and the mixture was then centrifuged.
(§10) The concentration of cAMP was determined using a binding assay comprising binding protein (from bovine adrenals). Tritiated cAMP, used as tracer, and extracts (from above) in different dilutions were incubated at +4° C. for 120-150 minutes. The cAMP in the unknown samples displaced the labelled cAMP from binding to the binding protein. The binding protein-cAMP/tracer complex was harvested using a filter technique and the filters were counted using a beta-counter. The concentrations of cAMP in the unknown extracts were calculated using a standard curve of known concentrations.

human MC4 receptor [6] = biological target: T3, human MC4 receptor; assay: cAMP assay, MC4 receptor (transfected Sf9 or COS cells); type: cell-based; details: 20 minutes at +37° C.
Method: as §7, §8, §9, §10

human MC5 receptor [7] = biological target: T4, human MC5 receptor; assay: cAMP assay, MC5 receptor (transfected Sf9 or COS cells); type: cell-based; details: 20 minutes at +37° C.
Method: as §7, §8, §9, §10

human MC3 receptor [8] = biological target: T2, human MC3 receptor; assay: cAMP assay, MC3 receptor (transfected Sf9 or COS cells); type: cell-based; details: 20 minutes at +37° C.
Method: as §7, §8, §9, §10

[9] = test system: Sprague-Dawley, male rats; assay: In vivo effects on food intake, nocturnal protocol, icv; set-up: species or system rat
Description: (§11) In Vivo Effects on Food Intake
(§12) Compounds have been tested for their effects on food intake and body weight in rats.
(§13) In order to investigate the agonistic effect, i.e. decrease in food intake, of compounds, the nocturnal protocol was used. Sprague-Dawley, male rats were used, which were cannulated intracerebroventricularly. Stainless steel guide cannulae were placed in the lateral ventricle and fixed in the skull. Animals were acclimatized for a week before the experiments took place. After the experiments were done, the rats were killed and placement of the cannulae were checked.
(§14) Rats were cannulated as described above. They were used without prior starvation, and compounds were administered at 5 pm in a total volume of 5 μl. Doses of Compound 2:4 used were 1, 4 and 10 nmoles. Food intake was measured at 3, 15 and 24 hours after dosing, and body weight was recorded at 24 hours. For comparison, the well known MC4 receptor agonist, Melanotan II (MTII) was used, at a dose of 1 nmole.

[10] = test system: Sprague-Dawley, male rats; assay: In vivo effects on body weight gain, nocturnal protocol, icv; set-up: species or system rat; details: icv, 1, 4 and 10 nmoles, recorded at 24 hours
Description: as §11, §12, §13, §14

Female BALB/c mice = assay: Anti-inflammatory effects: total number of white blood cells in DNFB model; type: in vivo, mouse; details: i.p., 0.05-0.75 mg/kg, blood collected 24 hours after last challenge
Method: Anti-Inflammatory Effects
Female BALB/c mice (weight 20-22 g) were sensitized by treatment of the shaved abdomen with 30 μl of 0.5% 2,4-dinitrofluorobenzene (DNFB). After 4 days they were challenged with 10 μl of 0.3% DNFB to the paw. The unchallenged mice paws served as a control. Twenty-four hours after the last challenge, the difference in paws weight were determined as an indicator of the inflammation (paw oedema).
Mice were treated as the control but were additionally injected i.p. with various doses (0.05, 0.15 or 0.25, 0.375, 0.5 and 0.75 mg/kg) of each compounds two hours before sensitization (day 0) and the same dose was administered repeatedly after sensitization during four consecutive days. The paw edema inhibition as described above. Groups containing at least 10 mice each were used for all experiments.
Blood analysis was carried out using the QBC® Autoread™ Plus & QBC® Accutube System (Becton Dickinson). In all cases blood samples were collected twenty-four hours after the last challenge.

T4 sequence (P33032 whole entry): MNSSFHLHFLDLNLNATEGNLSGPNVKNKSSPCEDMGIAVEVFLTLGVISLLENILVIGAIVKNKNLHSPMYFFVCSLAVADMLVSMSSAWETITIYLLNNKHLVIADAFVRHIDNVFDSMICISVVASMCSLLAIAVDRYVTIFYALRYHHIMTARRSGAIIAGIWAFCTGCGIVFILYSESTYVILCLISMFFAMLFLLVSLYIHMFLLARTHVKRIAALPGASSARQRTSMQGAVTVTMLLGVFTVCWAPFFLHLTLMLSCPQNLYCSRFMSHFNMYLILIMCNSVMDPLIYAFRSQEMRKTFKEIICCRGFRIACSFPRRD
T1 sequence (Q01727 whole entry): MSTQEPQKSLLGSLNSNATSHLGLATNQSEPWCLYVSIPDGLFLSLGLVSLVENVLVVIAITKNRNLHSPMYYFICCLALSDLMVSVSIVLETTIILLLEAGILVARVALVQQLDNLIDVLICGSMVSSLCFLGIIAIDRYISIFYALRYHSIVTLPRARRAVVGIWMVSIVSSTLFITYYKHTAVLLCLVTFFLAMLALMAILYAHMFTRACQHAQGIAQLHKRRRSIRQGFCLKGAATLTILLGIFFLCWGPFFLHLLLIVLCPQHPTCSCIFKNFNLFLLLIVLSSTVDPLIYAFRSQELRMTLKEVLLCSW
T3 sequence (P32245 whole entry): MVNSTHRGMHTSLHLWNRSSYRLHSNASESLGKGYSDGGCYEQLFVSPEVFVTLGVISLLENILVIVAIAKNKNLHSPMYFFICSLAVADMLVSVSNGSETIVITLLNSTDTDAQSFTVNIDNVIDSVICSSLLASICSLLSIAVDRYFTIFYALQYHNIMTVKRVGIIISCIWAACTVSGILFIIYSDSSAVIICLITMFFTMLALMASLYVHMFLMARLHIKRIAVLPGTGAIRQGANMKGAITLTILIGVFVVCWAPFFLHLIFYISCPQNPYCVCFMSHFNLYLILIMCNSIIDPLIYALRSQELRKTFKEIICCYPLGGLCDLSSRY
T2 sequence (P41968 whole entry): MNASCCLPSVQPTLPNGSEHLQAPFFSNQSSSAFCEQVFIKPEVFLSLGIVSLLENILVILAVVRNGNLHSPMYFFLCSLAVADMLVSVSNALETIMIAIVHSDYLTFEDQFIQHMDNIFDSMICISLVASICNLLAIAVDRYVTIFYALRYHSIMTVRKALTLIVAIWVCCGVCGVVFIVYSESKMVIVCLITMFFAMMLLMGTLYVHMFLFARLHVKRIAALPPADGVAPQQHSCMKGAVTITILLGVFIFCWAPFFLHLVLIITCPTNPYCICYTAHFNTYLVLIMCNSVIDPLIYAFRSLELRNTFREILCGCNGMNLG

| SMILES | pKi (MC1 receptor [1]) | Affinity for MC-receptors Ki MC3 (human MC3 receptor [2]) | pKi (human MC4 receptor [3]) | pKi (human MC5 receptor [4]) | Influence on cAMP MC1c (MC1 receptor [5]) | Influence on cAMP MC4c (human MC4 receptor [6]) | Influence on cAMP MC5c (human MC5 receptor [7]) | Influence on cAMP MC3c (human MC3 receptor [8]) | effects at the highest dose compared with MTII ([9]; icv, 10 nmoles versus MTII 1 nmole, food intake and body weight gain) | food intake ([9]; icv, 1, 4 and 10 nmoles, measured at 3, 15 and 24 hours after dosing) | body weight gain [10] | pKi (human MC3 receptor [2]) | white blood cell count (Female BALB/c mice) |
| --- | --- | --- | --- | --- | --- | --- | --- | --- | --- | --- | --- | --- | --- |
| CCn1c2ccccc2c2cc(NC(=O)C(Cc3c[nH]c4ccccc34)NC(=O)CCCNC(=N)N)ccc21 (centres unmarked) [2:6, N-[1-(9-Ethyl-9H-carbazol-3-ylcarbamoyl)-2-(1H-indol-3-yl)-ethyl]-4-guanidino-butyramide] | 5.57 | nb | 4.68 | 4.75 | 354 percentage of the baseline | 61 percentage of the baseline | 117 percentage of the baseline |  |  |  |  |  |  |
| CCn1c2ccccc2c2cc(NC(=O)C(Cc3c[nH]c4ccccc34)NC(=O)CCCN)ccc21 (centres unmarked) [Compound 2:7, 4-Amino-N-[1-(9-ethyl-9H-carbazol-3-ylcarbamoyl)-2-(1H-indol-3-yI)-ethyl]-butyramide] | 5.59 | nb | 4.74 | 4.60 | 315 percentage of the baseline | 79 percentage of the baseline | 154 percentage of the baseline |  |  |  |  |  |  |
| CCn1c2ccccc2c2cc(NC(=O)C(Cc3c[nH]c4ccccc34)NC(=O)CCN)ccc21 (centres unmarked) [2:14, 2-(3-Amino-propionylamino)-N-(9-ethyl-9H-carbazol-3-yl)-3-(1H-indol-3-yl)-propionamide] |  |  |  |  | 162 percentage of the baseline | 237 percentage of the baseline | 164 percentage of the baseline | 116 percentage of the baseline |  |  |  |  |  |
| N=C(N)NCCCC(=O)NC(Cc1c[nH]c2ccccc12)C(=O)NCCc1c[nH]c2ccccc12 (centres unmarked) [Compound 2:4, 4-Guanidino-N-{2-(1H-indol-3-yl)-1-[2-(1H-indol-3-yl)-ethylcarbamoyl]-ethyl}-butyramide] |  |  |  |  |  |  |  |  | in the same range as that observed with MTII | the intermediate and the highest dose is significantly different from vehicle treated animals | dose dependent and significantly different from vehicle treated animals at the highest dose tested |  |  |
| N=C(N)NCCCCN(Cc1ccccc1)C(=O)C(Cc1c[nH]c2ccccc12)NC(=O)CCCc1ccccc1 (centres unmarked) [Compound 1:15, N-[1-[Benzyl-(4-guanidino-butyl)-carbamoyl]-2-(1H-indol-3-yl)-ethyl]-4-phenyl-butyramide] | 5.89 |  | 5.25 | 4.45 |  |  |  |  |  |  |  | 4.63 | clearly dose dependent |
| NCCCNC(=O)C(Cc1c[nH]c2ccccc12)NC(=O)Cc1cccc2ccccc12 (centres unmarked) [1:6, N-(3-Amino-propyl)-3-(1H-indol-3-yl)-2-(2-naphthalen-1-yl-acetylamino)-propionamide] | 4.90 |  | 4.60 | 4.51 | 375 percentage of the baseline | 99 percentage of the baseline | 76 percentage of the baseline |  |  |  |  | 4.43 |  |
| N=C(N)NCCCCN(Cc1ccccc1)C(=O)C(Cc1c[nH]c2ccccc12)NC(=O)Cc1ccc2ccccc2c1 (centres unmarked) [Compound 1:17, N-Benzyl-N-(4-guanidino-butyl)-3-(1H-indol-3-yl)-2-(2-naphthalen-2-yl-acetylamino)-propionamide] | 6.22 |  | 5.51 | 4.36 |  |  |  |  |  |  |  | 4.45 | clearly dose dependent |
